The target in assay [1] is T1, histamine H3 receptor (Homo sapiens, UniProt Q9Y5N1).
T1 construct: expressed in transfected cells; host or cells: CHO K1 cells carrying pSwitch, transfected with pGeneH3 and induced with mifepristone; clone 3H3; membrane preparation
As to the kind of experiment: Histamine H3 functional antagonist assay (method A), [35S]-GTPγS SPA on membranes. Conditions: functional pKi, membrane from cultured H3 cells (CHO K1), histamine at EC80, averages of a number of experiments, read-out: Antagonism (fpKi) (converted). It is filed as biochemical. From the text:
(§1) A membrane preparation containing histamine H3 receptors may be prepared in accordance with the following procedures:
(§2) (i) Generation of Histamine H3 Cell Line
(§3) DNA encoding the human histamine H3 gene (Huvar, A. et al. (1999) Mol. Pharmacol. 55(6), 1101-1107) was cloned into a holding vector, pCDNA3.1 TOPO (InVitrogen) and its cDNA was isolated from this vector by restriction digestion of plasmid DNA with the enzymes BamH1 and Not-1 and ligated into the inducible expression vector pGene (InVitrogen) digested with the same enzymes. The GeneSwitch™ system (a system where in transgene expression is switched off in the absence of an inducer and switched on in the presence of an inducer) was performed as described in U.S. Pat. Nos. 5,364,791; 5,874,534; and 5,935,934. Ligated DNA was transformed into competent DH5α E. coli host bacterial cells and plated onto Luria Broth (LB) agar containing Zeocin™ (an antibiotic which allows the selection of cells expressing the sh ble gene which is present on pGene and pSwitch) at 50 μg ml^−1. Colonies containing the re-ligated plasmid were identified by restriction analysis. DNA for transfection into mammalian cells was prepared from 250 ml cultures of the host bacterium containing the pGeneH3 plasmid and isolated using a DNA preparation kit (Qiagen Midi-Prep) as per manufacturers guidelines (Qiagen).
CHO K1 cells previously transfected with the pSwitch regulatory plasmid (InVitrogen) were seeded at 2×10e6 cells per T75 flask in Complete Medium, containing Hams F12 (GIBCOBRL, Life Technologies) medium supplemented with 10% v/v dialysed foetal bovine serum, L-glutamine, and hygromycin (100 μg ml^−1), 24 hours prior to use. Plasmid DNA was transfected into the cells using Lipofectamine plus according to the manufacturers guidelines (InVitrogen). 48 hours post transfection cells were placed into complete medium supplemented with 500 μg ml^−1 Zeocin™.
10-14 days post selection 10 nM Mifepristone (InVitrogen), was added to the culture medium to induce the expression of the receptor. 18 hours post induction cells were detached from the flask using ethylenediamine tetra-acetic acid (EDTA; 1:5000; InVitrogen), following several washes with phosphate buffered saline pH 7.4 and resuspended in Sorting Medium containing Minimum Essential Medium (MEM), without phenol red, and supplemented with Earles salts and 3% Foetal Clone II (Hyclone). Approximately 1×10e7 cells were examined for receptor expression by staining with a rabbit polyclonal antibody, 4a, raised against the N-terminal domain of the histamine H3 receptor, incubated on ice for 60 minutes, followed by two washes in sorting medium. Receptor bound antibody was detected by incubation of the cells for 60 minutes on ice with a goat anti rabbit antibody, conjugated with Alexa 488 fluorescence marker (Molecular Probes). Following two further washes with Sorting Medium, cells were filtered through a 50 μm Filcon™ (BD Biosciences) and then analysed on a FACS Vantage SE Flow Cytometer fitted with an Automatic Cell Deposition Unit. Control cells were non-induced cells treated in a similar manner. Positively stained cells were sorted as single cells into 96-well plates, containing Complete Medium containing 500 μg ml^−1 Zeocin™ and allowed to expand before reanalysis for receptor expression via antibody and ligand binding studies. One clone, 3H3, was selected for membrane preparation.
(ii) Membrane Preparation from Cultured Cells
All steps of the protocol are carried out at 4° C. and with pre-cooled reagents. The cell pellet is resuspended in 10 volumes of homogenisation buffer (50 mM N-2-hydroxyethylpiperazine-N′-2-ethanesulfonic acid (HEPES), 1 mM ethylenediamine tetra-acetic acid (EDTA), pH 7.4 with KOH, supplemented with 10e-6M leupeptin (acetyl-leucyl-leucyl-arginal; Sigma L2884), 25 μg/ml bacitracin (Sigma B0125), 1 mM phenylmethylsulfonyl fluoride (PMSF) and 2×10 e-6M pepstain A (Sigma)). […]
(In general: GTPγS resists hydrolysis and so accumulates on activated G proteins.)

In assay [2] the target is T1, histamine H3 receptor. As to the kind of experiment: Histamine H3 functional antagonist assay (method B), [35S]-GTPγS SPA on membranes. It is filed as biochemical. Conditions: functional pKi, membrane from cultured H3 cells (CHO K1), histamine at EC80, averages of a number of experiments, read-out: Antagonism (fpKi) (converted).
Excerpt: as §1, §2
as §3, with “(Qiagen). […]” for “(Qiagen).”
10-14 days post selection 10 nM Mifepristone (InVitrogen), was added to the culture medium to induce the expression of the receptor. […] Receptor bound antibody was detected by incubation of the cells for 60 minutes on ice with a goat anti rabbit antibody, conjugated with Alexa 488 fluorescence marker (Molecular Probes). Following two further washes with Sorting Medium, cells were filtered through a 50 μm Filcon™ (BD Biosciences) and then analysed on a FACS Vantage SE Flow Cytometer fitted with an Automatic Cell Deposition Unit. […]

T1 sequence (Q9Y5N1 whole entry): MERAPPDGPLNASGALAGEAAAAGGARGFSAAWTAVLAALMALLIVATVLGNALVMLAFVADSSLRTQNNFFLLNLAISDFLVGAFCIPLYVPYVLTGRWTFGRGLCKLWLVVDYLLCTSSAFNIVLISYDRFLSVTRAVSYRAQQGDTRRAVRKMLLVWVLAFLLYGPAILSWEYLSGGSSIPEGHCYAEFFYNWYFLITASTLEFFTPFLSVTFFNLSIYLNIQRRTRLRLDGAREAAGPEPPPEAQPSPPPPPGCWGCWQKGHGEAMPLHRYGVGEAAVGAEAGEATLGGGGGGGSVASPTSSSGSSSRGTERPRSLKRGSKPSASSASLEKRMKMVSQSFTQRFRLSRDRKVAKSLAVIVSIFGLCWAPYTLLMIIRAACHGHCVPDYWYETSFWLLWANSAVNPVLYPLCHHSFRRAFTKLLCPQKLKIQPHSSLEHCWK

Turning to `O=C1OCCN1c1ccc(Oc2ccc3c(c2)CCN(C2CCCC2)CC3)nn1` [Compound 5, 3-{6-[(3-Cyclopentyl-2,3,4,5-tetrahydro-1H-3-benzazepin-7-yl)oxy]-3-pyridazinyl}-1,3-oxazolidin-2-one], the Ki in assay [1] was 0.0501 nM. For the compound `Cc1noc(-c2cnc(Oc3ccc4c(c3)CCN(C3CCCC3)CC4)cn2)n1` [Compound 7, 3-Cyclopentyl-7-{[5-(3-methyl-1,2,4-oxadiazol-5-yl)-2-pyrazinyl]oxy}-2,3,4,5-tetrahydro-1H-3-benzazepine], in assay [1], the Ki is 0.126 nM.

Regarding `Cc1noc(-c2ccc(Oc3ccc4c(c3)CCN(C3CCCC3)CC4)nc2)n1` [Compound 9, 3-Cyclopentyl-7-{[5-(3-methyl-1,2,4-oxadiazol-5-yl)-2-pyridinyl]oxy}-2,3,4,5-tetrahydro-1H-3-benzazepine], the Ki in assay [1] was 0.251 nM. For `O=C1CCCN1c1ccc(Oc2ccc3c(c2)CCN(C2CCCC2)CC3)nc1` [Compound 1, 1-{6-[(3-Cyclopentyl-2,3,4,5-tetrahydro-1H-3-benzazepin-7-yl)oxy]-3-pyridinyl}-2-pyrrolidinone], the Ki in assay [1] was 0.0794 nM; in assay [2], 0.158 nM.

With `Cc1noc(-c2ccc(Oc3ccc4c(c3)CCN(C3CCC3)CC4)nc2)n1` [Compound 8, 3-Cyclobutyl-7-{[5-(3-methyl-1,2,4-oxadiazol-5-yl)-2-pyridinyl]oxy}-2,3,4,5-tetrahydro-1H-3-benzazepine], the Ki in assay [1] is 0.1 nM. Consider `O=C1CCCN1c1ccc(Oc2ccc3c(c2)CCN(C2CCCC2)CC3)nn1` [Compound 6, 1-{6-[(3-Cyclopentyl-2,3,4,5-tetrahydro-1H-3-benzazepin-7-yl)oxy]-3-pyridazinyl}-2-pyrrolidinone], for which the Ki in assay [1] is 0.126 nM. Consider `O=C1CCCN1c1cnc(Oc2ccc3c(c2)CCN(C2CCCC2)CC3)cn1` [Compound 2, 1-{5-[(3-Cyclopentyl-2,3,4,5-tetrahydro-1H-3-benzazepin-7-yl)oxy]-2-pyrazinyl}-2-pyrrolidinone], for which the Ki is 0.0794 nM in assay [1] and 0.158 nM in assay [2]. Regarding `O=C1CCCN1c1ccc(Oc2ccc3c(c2)CCN(C2CCC2)CC3)cc1` [Compound 4, 1-{4-[(3-Cyclobutyl-2,3,4,5-tetrahydro-1H-3-benzazepin-7-yl)oxy]phenyl}-2-pyrrolidinone], in assay [1], the Ki is 0.158 nM. As to `CN1CCN(c2ccc(Oc3ccc4c(c3)CCN(C3CCC3)CC4)c(F)c2)C1=O` [Compound 3, 1-{4-[(3-Cyclobutyl-2,3,4,5-tetrahydro-1H-3-benzazepin-7-yl)oxy]-3-fluorophenyl}-3-methyl-2-imidazolidinone], the values for the Ki in assay [1] and in assay [2] were 0.0501 nM and 0.158 nM, respectively.

For the origin of these results see patent US20070232590A1, “3-Cylcoalkylbenzazepines as Histamine H3 Antagonists” (GLAXO GROUP LIMITED, priority 2004, published 2007).
